Results on 1 compound are retold here after patent US6296859A, “Synergistic composition comprising a compound of lipoamino acid structure and a water lily extract” (Societe d'Exploitation de Produits pour les Industries …, priority 1998, dated 2001).

In assay [1] the target is T1, human leukocytic elastase (HLE) (Homo sapiens, UniProt P08246).
T1 sequence (P08246 30-267): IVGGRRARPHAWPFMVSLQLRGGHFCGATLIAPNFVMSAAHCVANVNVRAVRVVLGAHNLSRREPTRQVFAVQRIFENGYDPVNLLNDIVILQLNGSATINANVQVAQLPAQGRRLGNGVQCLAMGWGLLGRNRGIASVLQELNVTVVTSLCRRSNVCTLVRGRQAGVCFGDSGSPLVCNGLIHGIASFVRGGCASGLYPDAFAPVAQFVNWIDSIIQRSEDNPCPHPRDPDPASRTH
The assay can be described thus: anti-elastase test: spectrophotometric hydrolysis of N-methoxysuccinyl-alanine-proline-valine-para-nitroanilide at 410 nm. It is filed as biochemical. Particulars: test concentration 0.001% palmitoylproline alone; 25° C.
Procedure: The reaction is carried out in a spectrophotometer, thermostatically maintained at 25° C., fitted with a sample changer. All the kinetics are carried out at least three times, the average and the standard deviation then being calculated for the three values obtained. […] A correlation thus exists between the percentage of inhibition of the formation of the coloured product by the test compound and the percentage of inhibition of human leukocytic elastase. The percentage of inhibition thus calculated is also representative of the calmant activity of the test compound.

Assay [2] is described as follows: anti-free-radical test: xanthine oxidase/xanthine, rate of reduction of cytochrome C at 550 nm. It is filed as biochemical. Particulars: test concentration 0.0062% palmitoylproline alone; 25° C.
Source text: The determination of the anti-free-radical effect is based on the inhibition or the decrease in the rate of reduction of cytochrome C, by adding a test molecule to the reaction medium. The superoxide anion is generated by the action of xanthine oxidase on xanthine. In the absence of a molecule capable of capturing it, it results in the reduction of cytochrome C. The formation of reduced cytochrome C is monitored by a spectrophotometer, at 550 nm in the presence (Test) and in the absence (Control) of anti-free-radical molecules.
The reaction takes place in a spectrophotometer thermostatically adjusted to 25° C. and fitted with a sample changer. All of the kinetics are carried out at least three times; the average and the standard deviation are calculated for the three values obtained. A percentage of inhibition of the rate of formation of the coloured product (corresponding to the amount of free superoxide anion) will thus be calculated for each active agent tested. […] The percentage of inhibition of the formation of the coloured product by the active agent will thus correspond to its percentage of inhibition of the superoxide anion.

`CCCCCCCCCCCCCCCC(=O)N1CCC[C@H]1C(=O)O` [Palmitoylproline, N-palmitoylproline]: the “% of anti-elastase inhibition” value in assay [1] worked out at 22%. The “% of anti-free-radical inhibition” value in assay [2] is given as 38%.
